Results reported in patent US10240255B2 (priority 2007, dated 2019).

Assays:
[1] = tested on: BioMAP® systems (primary human cells); format: cell-based
[2] = tested on: endothelial cells and PBMC

CO/C(=C/C(N)=O)[C@H](C)[C@H](/C=C/c1csc(-c2csc([C@@H](C)/C=C/C=C/C(C)C)n2)n1)OC [Myxothiazol]
IL1 level [1]: upregulation
MCP1 level [1]: inhibition
T cell activation [1]: inhibition
VCAM level [1]: upregulation
proliferation [1]: inhibition

COC[C@H]1OC(=O)c2coc3c2[C@@]1(C)C1=C(C3=O)[C@@H]2CCC(=O)[C@@]2(C)C[C@H]1OC(C)=O [Wortmannin]
cytotoxicity [2]: not cytotoxic

C=C(CC)C(=O)c1ccc(OCC(=O)O)c(Cl)c1Cl [ethacrynic acid]
E-selectin level ([2]; 10 μM): inhibition
HLA-DR level ([2]; 10 μM): inhibition
PBMC proliferation ([2]; 10 μM): inhibition
T cell activation ([2]; 10 μM): inhibition
VCAM level ([2]; 10 μM): inhibition
monocyte activation ([2]; 10 μM): inhibition
